This note sets out measurements from patent US9980943B2, “Methods of treating muscular dystrophy” (BOARD OF REGENTS OF THE NEVADA SYSTEM OF HIGHER EDUCATION, …, priority 2013, dated 2018).

Each structure is given as a SMILES string. Read-outs that look alike come from different tables or passages of the source.

Assay [1] deals with α7 integrin (LacZ reporter in α7LacZ+/− myoblasts). Nature of the assay: qHTS of the LOPAC library and MLSMR (online screen, α7LacZ+/− myoblasts). The conditions noted are these: Mus musculus, Myoblast; for activation at 0.307 µM: read-out: Activity at 0.307 uM [%] **; for activation at 1.53 µM: read-out: Activity at 1.530 uM [%] **; for activation at 7.66 µM: read-out: Activity at 7.660 uM [%] **; for activation at 38.3 µM: read-out: Activity at 38.30uM [%] **; for EC50: read-out: Fit LogAC50 (converted).
Description: A total of 250 α7LacZ^+/− myoblasts at passage 13 were dispensed using a multidrop (Thermo) into black low base tissue culture treated microclear aurora plates in 6 μl media containing DMEM without phenol, 5% FBS, 1× GluMax and 1× Penicillin/Streptomycin. […] Compounds were then dispensed using a Kalypsys pintool to deliver 23 nl/well compounds in DMSO (diluted into 6 μl resulting in a 1:260 dilution of compound). […] After incubation with compound, 5 μl of the media was aspirated using the Kalypsys washer/dispenser and 3 μl of the Mammalian Protein Extraction Reagent (MPER) lysis buffer (Thermo Fisher) was added. […] The plates were then incubated for 10 minutes at room temperature.
The assay was adapted for a high-throughput screen with the fully automated Kalypsys robotic system using 1536 well plates at NCGC.

For assay [2], the system named is α7 integrin (LacZ reporter in α7βgal+/− myoblasts). Nature of the assay: Myoblast α7+/LacZ integrin FDG assay (Burkin assay in myoblasts, 96-well). The conditions noted are these: α7+/LacZ myoblasts, 96-well. The class given is cell-based, mouse.
Assay [3] has as its system α7 integrin (LacZ reporter in α7+/LacZ myotubes). Nature of the assay: Myotube α7 integrin FDG assay (Burkin assay in myotubes, 96-well). The class given is cell-based, mouse. The note with it: myotubes.
Assay [4] deals with β-galactosidase in CMV-LacZ C2C12 myotubes. The assay is described as follows: CMV-LacZ secondary screen in C2C12 myotubes (β-Gal stabilizing assay). The class given is cell-based, mouse. The conditions noted are these: for CMV-LACZ in Myotubes (β-galactosidase activity relative to DMSO): CMV-LacZ C2C12 myotubes, 96-well format. In short, it runs like this:
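A secondary screen identifies compounds that stabilize β-gal independently of the native promoter, using CMV-LacZ C2C12 cells. Curves span 0.5–40 μM at six levels, in duplicate.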

Where [5] appears, read: 48 h, read-out: Fit Infinite Activity [%].

With `Nc1nccc(-c2ccc(-n3cnc4ccccc43)cc2)n1` [Compound 192], in assay [1] (48 h), the activation at 0.307 µM is 0.89%, the activation at 1.53 µM stood at 2.96%, the activation at 7.66 µM was found to be 15.9% and the activation at 38.3 µM was found to be 76.1%. The Emax in assay [1] (setting [5]) came out at 76.5%. The Emax in assay [1] (read-out: Max Response [%]) came out at 76.1%.
Turning to `COC(=O)c1ccc(C2C(C(=O)c3cc4ccccc4o3)=C(O)C(=O)N2CCN2CCOCC2)cc1` (stereo not shown) [Compound 141], in assay [1] (48 h), the activation at 0.307 µM was -17.2%, the activation at 1.53 µM was -18.3%, the activation at 7.66 µM turned out to be 2.6% and the activation at 38.3 µM worked out at 82.7%. Further, in assay [1] (setting [5]), the Emax came to 82.8%. The EC50 in assay [1] is 10 µM. Moreover, the Emax in assay [1] (read-out: Max Response [%]) was found to be 82.7%.
As for `O=C(Nc1ccccc1F)c1ccc([N+](=O)[O-])s1` [Compound 81], in assay [1] (48 h), the activation at 0.307 µM came to 1.83%, the activation at 1.53 µM is 5.12%, the activation at 7.66 µM is 24.3% and the activation at 38.3 µM turned out to be 215%. Moreover, the Emax in assay [1] (setting [5]) was 216%. The EC50 in assay [1] was 12.6 µM. Also, in assay [1] (read-out: Max Response [%]), the Emax stood at 215%.
For `COc1ccc(S(=O)(=O)Nc2ccc(S(=O)(=O)Nc3nccs3)cc2)cc1` [Compound 152], in assay [1] (48 h), the activation at 0.307 µM was -6.73%, the activation at 1.53 µM came to 0%, the activation at 7.66 µM was determined as 26.3% and the activation at 38.3 µM came out at 67.4%. The Emax in assay [1] (setting [5]) came out at 88.8%. Further, the Emax in assay [1] (read-out: Max Response [%]) came out at 67.4%.
As to `COc1ccc(C(=O)N/C(=C/c2cccnc2)C(=O)N2CCN(C)CC2)cc1OC` [Compound 92], in assay [1] (48 h), the activation at 0.307 µM is 2.57%, the activation at 1.53 µM was determined as 13.3%, the activation at 7.66 µM was 54.9% and the activation at 38.3 µM was determined as 75%. Also, in assay [1] (setting [5]), the Emax turned out to be 77%. In addition, the EC50 in assay [1] is 4.47 µM. Further, the Emax in assay [1] (read-out: Max Response [%]) was found to be 75%.
As for `Cc1cc(NC(=O)c2ccc(Cl)cc2Cl)no1` [Compound 19], in assay [1] (48 h), the activation at 0.307 µM was -20.1%, the activation at 1.53 µM worked out at 15%, the activation at 7.66 µM turned out to be 43.9% and the activation at 38.3 µM came to 52.1%. In assay [1] (setting [5]), the Emax was 52.7%. In addition, the EC50 in assay [1] is 1.41 µM.
In the case of `C/C(=N\NC(=O)c1cc(C)oc1C)c1ccc2ccccc2c1` [Compound 149], in assay [1] (48 h), the activation at 0.307 µM was -0.126%, the activation at 1.53 µM turned out to be 8.59%, the activation at 7.66 µM was determined as 37% and the activation at 38.3 µM was 68%. Moreover, the Emax in assay [1] (setting [5]) came out at 82.4%. Further, the Emax in assay [1] (read-out: Max Response [%]) turned out to be 68%.
For `COc1nccc(NCc2ccccc2)c1C#N` [MLS001077207-01], the fold induction at 0.5 µM turned out to be 0.97 in assay [2] (Mus musculus, Myoblast, 48 h, 0.5 uM, read-out: Burkin Assay in Myoblasts, signal relative to DMSO) and 0.985 in assay [3] (Mus musculus, Myotube, 0.5 uM, read-out: Burkin Assay in Myotubes, α7 integrin LacZ reporter signal relative to DMSO). In addition, the fold induction at 1 µM in assay [2] (Mus musculus, Myoblast, 48 h, 1 uM, read-out: Burkin Assay in Myoblasts, signal relative to DMSO) stood at 1.01; in assay [3] (Mus musculus, Myotube, 1 uM, read-out: Burkin Assay in Myotubes, α7 integrin LacZ reporter signal relative to DMSO), 1.06. Moreover, the fold induction at 5 µM was 1.05 in assay [2] (Mus musculus, Myoblast, 48 h, 5 uM, read-out: Burkin Assay in Myoblasts, signal relative to DMSO); 1.42 in assay [3] (Mus musculus, Myotube, 5 uM, read-out: Burkin Assay in Myotubes, α7 integrin LacZ reporter signal relative to DMSO); 0.952 in assay [4] (Mus musculus, C2C12, read-out: CMV-LACZ in Myotubes, signal relative to DMSO, 5 uM, C2C12 CMV-LacZ myotubes, fold relative to DMSO). Also, the fold induction at 10 µM amounted to 1.06 in assay [2] (Mus musculus, Myoblast, 48 h, 10 uM, read-out: Burkin Assay in Myoblasts, signal relative to DMSO); 1.15 in assay [3] (Mus musculus, Myotube, 10 uM, read-out: Burkin Assay in Myotubes, α7 integrin LacZ reporter signal relative to DMSO); 1.04 in assay [4] (Mus musculus, C2C12, read-out: CMV-LACZ in Myotubes, signal relative to DMSO, 10 uM, C2C12 CMV-LacZ myotubes, fold relative to DMSO). Moreover, the fold induction at 20 µM is 1.01 in assay [2] (Mus musculus, Myoblast, 48 h, 20 uM, read-out: Burkin Assay in Myoblasts, signal relative to DMSO); 1.01 in assay [3] (Mus musculus, Myotube, 20 uM, read-out: Burkin Assay in Myotubes, α7 integrin LacZ reporter signal relative to DMSO); 0.866 in assay [4] (Mus musculus, C2C12, read-out: CMV-LACZ in Myotubes, signal relative to DMSO, 20 uM, C2C12 CMV-LacZ myotubes, fold relative to DMSO). In addition, the fold induction at 40 µM in assay [2] (Mus musculus, Myoblast, 48 h, 40 uM, read-out: Burkin Assay in Myoblasts, signal relative to DMSO) amounted to 1.15; in assay [3] (Mus musculus, Myotube, 40 uM, read-out: Burkin Assay in Myotubes, α7 integrin LacZ reporter signal relative to DMSO) it was 1.21; in assay [4] (Mus musculus, C2C12, read-out: CMV-LACZ in Myotubes, signal relative to DMSO, 40 uM, C2C12 CMV-LacZ myotubes, fold relative to DMSO) it was 0.782.
For the molecule `Cc1cc(NC(=O)CCC(=O)N(Cc2cccnc2)C(C(=O)NC(C)(C)C)c2ccccc2Cl)no1` (stereo not shown) [MLS001220803-01], the “Burkin Assay in Myoblasts, value relative to DMSO” value in assay [2] (0.5 uM) is 0.9688; in assay [2] (1 uM), 1.0343; in assay [2] (5 uM), 0.8878; in assay [2] (10 uM), 0.9511; in assay [2] (20 uM), 0.9503; in assay [2] (40 uM), 0.9906. Besides, the “Burkin Assay in Myotubes (signal relative to DMSO)” value in assay [3] (0.5 uM) is 0.9345; in assay [3] (1 uM), 0.9703; in assay [3] (5 uM) it was 1.18; in assay [3] (10 uM) it was 1.075; in assay [3] (20 uM) it was 1.0147; in assay [3] (40 uM), 0.9622. In addition, the “CMV-LACZ in Myotubes (β-galactosidase activity relative to DMSO)” value in assay [4] (5 uM) was determined as 1.115; in assay [4] (10 uM) it was 1.064; in assay [4] (20 uM), 1.091; in assay [4] (40 uM) it was 1.05.
For `O=C(COc1cc2oc(=O)c3c(c2cc1Cl)CCCC3)NCC1CCC(C(=O)O)CC1` (stereo not shown) [MLS001157804-01], the “Burkin Assay in Myoblasts, value relative to DMSO” value in assay [2] (0.5 uM) is listed as 0.879; in assay [2] (1 uM), 0.9385; in assay [2] (5 uM) it was 0.998; in assay [2] (10 uM), 1.117; in assay [2] (20 uM) it was 1.052; in assay [2] (40 uM) it was 1.104. Further, the “Burkin Assay in Myotubes (signal relative to DMSO)” value was 1.045 in assay [3] (0.5 uM); 1.013 in assay [3] (1 uM); 1.031 in assay [3] (5 uM); 1.083 in assay [3] (10 uM); 1.069 in assay [3] (20 uM); 1.188 in assay [3] (40 uM). The “CMV-LACZ in Myotubes, signal relative to DMSO” value in assay [4] (5 uM, C2C12 CMV-LacZ myotubes, fold relative to DMSO) was found to be 0.703; in assay [4] (10 uM, C2C12 CMV-LacZ myotubes, fold relative to DMSO), 0.9842; in assay [4] (20 uM, C2C12 CMV-LacZ myotubes, fold relative to DMSO), 1.05; in assay [4] (40 uM, C2C12 CMV-LacZ myotubes, fold relative to DMSO), 1.07.
Take `O=C(Nc1ccccc1)Nc1ccc(Cl)c(S(=O)(=O)N2CCOCC2)c1` [MLS000773700-01]: the “Burkin Assay in Myoblasts, value relative to DMSO” value in assay [2] (0.5 uM) amounted to 0.9335; in assay [2] (1 uM) it was 1.0257; in assay [2] (5 uM), 0.9059; in assay [2] (10 uM) it was 0.8657; in assay [2] (20 uM), 0.9227; in assay [2] (40 uM), 0.8721. The “Burkin Assay in Myotubes (signal relative to DMSO)” value stood at 1.008 in assay [3] (0.5 uM); 1.019 in assay [3] (1 uM); 0.7118 in assay [3] (5 uM); 0.9516 in assay [3] (10 uM); 0.9895 in assay [3] (20 uM); 0.472 in assay [3] (40 uM). Further, the “CMV-LACZ in Myotubes (β-galactosidase activity relative to DMSO)” value is listed as 1.126 in assay [4] (5 uM), 1.1166 in assay [4] (10 uM), 0.929 in assay [4] (20 uM) and 0.4092 in assay [4] (40 uM).
